Experimental data taken from PubChem BioAssay AID743119 (The Scripps Research Institute Molecular Screening Center, 2013).

Tests used:
[1] = target: Acyl-protein thioesterase 1 (Homo sapiens) (UniProt O75608); experiment: LYPLA1 and LYPLA2 inhibition in intact cells, late-stage follow-up, HeLa cells, in situ treatment, fluorescence gel (AID 743119); conditions: gel-based ABPP FP-Rh fluorescence, LYPLA1
[2] = target: Acyl-protein thioesterase 2 (Homo sapiens) (UniProt O95372); experiment: as above; conditions: gel-based ABPP FP-Rh fluorescence, LYPLA2
Sequence of Acyl-protein thioesterase 2 (Homo sapiens) (O95372 whole entry, looked up): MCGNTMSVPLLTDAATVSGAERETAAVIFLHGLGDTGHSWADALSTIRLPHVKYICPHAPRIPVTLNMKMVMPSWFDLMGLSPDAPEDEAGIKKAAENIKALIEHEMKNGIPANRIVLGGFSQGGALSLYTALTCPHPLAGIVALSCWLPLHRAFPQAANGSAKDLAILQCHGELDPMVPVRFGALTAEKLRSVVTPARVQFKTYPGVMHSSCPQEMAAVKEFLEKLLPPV

Sequence of Acyl-protein thioesterase 1 (Homo sapiens) (O75608 whole entry, looked up): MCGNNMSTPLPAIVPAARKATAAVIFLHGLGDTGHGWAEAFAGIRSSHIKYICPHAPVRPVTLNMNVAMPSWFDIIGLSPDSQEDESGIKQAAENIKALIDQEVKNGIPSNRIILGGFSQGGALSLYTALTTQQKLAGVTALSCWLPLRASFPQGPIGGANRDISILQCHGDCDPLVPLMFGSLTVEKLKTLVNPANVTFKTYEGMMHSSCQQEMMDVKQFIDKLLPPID

IC50 [1]: 87 nM
IC50 [2]: 143 nM
SMILES: O=C(ON1C(=O)C2CN(C(=O)N3CCOCC3)CCN2C1=O)N1CCC(CCc2ccc(Cl)cc2)CC1 (configuration not stated)
